From PMC10107299, “Neutralizing the Impact of the Virulence Factor LecA from Pseudomonas aeruginosa on Human Cells with New Glycomimetic Inhibitors” (Angewandte Chemie (International Ed. in English), 2023)

How the values were obtained:
P. aeruginosa PAO1 = experiment: Invasion assay of P. aeruginosa PAO1 into H1299 cells; type: cell-based, Pseudomonas aeruginosa
Experimental: P. aeruginosa is able to invade non‐phagocytic cells via a lipid zipper mechanism.[10] Binding of LecA to the glycosphingolipid Gb3 followed by LecA‐induced receptor clustering plays a crucial role in this process. The LecA ligand 4‐nitrophenyl α‐ D‐galactopyranoside (PNPG) has been previously shown to interfere with these events at a high concentration of 10 mM leading to a reduction of bacterial invasiveness to 30–60 % as compared to untreated bacteria (100 % invasiveness).[10, 31] For invasion assays, H1299 cells were incubated with P. aeruginosa in presence and absence of LecA inhibitors, followed by killing of extracellular bacteria with the antibiotic amikacin. Then, all intracellular bacteria were released by lysis of the human cells and viable bacteria were quantified by plating. To assess the impact of LecA inhibitors on the invasiveness, the influence of the divalent LecA inhibitor L2 on bacterial invasion into host cells was evaluated and compared to PNPG. […] In contrast, the divalent LecA ligand L2 achieved an invasion decrease to 44 % already at 100 μM (Figure 5c). L2 was thus able to reach a similar reduction of invasion at a 100‐fold lower concentration than the one needed for PNPG. […]
lectin-inhibitor solution for 24 h at 37 °C. In order to depict exactly the same position for each wound, marker lines were drawn on the bottom of the 12-well plates for each well. The samples were imaged with an EVOS microscope (PEQLAB by VWR Life Sciences, Avantor […]
Excel. […]
A chromosomally GFP-tagged Gentamicin-resistant Pseudomonas aeruginosa PAO1 strain was cultured (LB medium supplemented with 60 µg/mL Gentamicin, 37 °C, 180 rpm, 16 h) and invasion assays were performed in analogy to Eierhoff et al..[13] 1.5 x 10^4 H1299 cells per well were seeded one day prior to the invasion assay in a 96-well plate with flat bottom. An […]
overnight culture of P. aeruginosa was centrifuged for 5 min at 3000 x g, washed with PBS (- /-) and re-suspended in RPMI 1640 medium. The newly synthesized divalent LecA ligand L2 was compared to 4-nitrophenyl α-D-galactopyranoside (PNPG; Sigma-Aldrich, Chemie GmbH, Darmstadt, Germany). […]
Subsequently, cells were washed three times with DPBS and lysed by incubation with 0.25% (v/v) Triton X-100 (Carl Roth GmbH & Co. KG, Karlsruhe, Germany) for 5 min at 37 °C and 180 rpm. […] Bacterial colonies were counted the next day. […] The invasion rate was calculated as the number of intracellularly localized bacteria divided by the total number of non-treated bacteria, bacteria that were not treated with any ligands and neither amikacin, thus the number of P. aeruginosa that successfully invaded or stayed attached to the host cells. Experiments were repeated independently at least four times (N ≥ 4) and evaluated […]

[1] = Thermodynamic solubility in TBS/Ca2+ buffer; type: physicochemical
From the text: Next, we quantified the solubility of at least one representative of each new class and of one parent bisacylhydrazone in aqueous media (Table 1).

O=C(CCc1ccc(O[C@@H]2O[C@H](CO)[C@H](O)[C@H](O)[C@H]2O)cc1)Nc1ccc(CCc2ccc(NC(=O)CCc3ccc(O[C@@H]4O[C@H](CO)[C@H](O)[C@H](O)[C@H]4O)cc3)cc2S(=O)(=O)O)c(S(=O)(=O)O)c1 [Compound L2]
Lower concentration than PNPG for similar reduction of invasion (P. aeruginosa PAO1; 100 μM L2 vs 10 mM PNPG): 100 fold
Bacterial invasiveness (untreated bacteria 100 %) (P. aeruginosa PAO1; 100 μM inhibitor, PAO1 into H1299 cells, N≥4): 44%
solubility ([1]; TBS/Ca2+ buffer, pH 7.4, thermodynamic from solid, aqueous buffer, from solid, read-out: Solubility S (dissolved from solid form in aqueous buffer)): > 1500 µM
Increase in solubility versus parent bisacylhydrazones ([1]; pH 7.4): over 1000 fold
solubility thermodynamic ([1]; pH 7.4, aqueous buffer, thermodynamic from solid, TBS/Ca2+ buffer w/o DMSO, N=1, read-out: Solubility S (thermodynamic)): > 1500 µM
